Experimental data from patent publication US12258328B2, “6-membered heteroaryl-containing aminopyridine compounds as EGFR inhibitors” (YUHAN CORPORATION, priority 2021, dated 2025).
pIC50: −log10 of the molar value. Like-named read-outs stand apart in the source and are kept apart here.

How the values were obtained:
[1] = target: EGFR L858R/C797S (Homo sapiens, UniProt P00533, C797S/L858R); assay: Biochemical EGFR kinase assay (Lance Ultra TR-FRET), double mutant L858R/C797S
How it was run: (§1)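 Kinase activity is measured by TR-FRET phosphopeptide detection. Compounds span 0.003 μM to 10 μM; the 1 h reaction at room temperature is quenched with EDTA, then labelled antibody (2 nM) is incubated 60 min before reading.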

[2] = target: EGFR L858R/T790M/C797S (Homo sapiens, UniProt P00533, C797S/L858R/T790M); assay: Biochemical EGFR kinase assay (Lance Ultra TR-FRET), triple mutant L858R/T790M/C797S
How it was run: as §1

[3] = target: EGFR wildtype (Homo sapiens, UniProt P00533); assay: Biochemical EGFR kinase assay (Lance Ultra TR-FRET), wildtype
How it was run: as §1

[4] = target: EGFR del19/C797S (Homo sapiens, UniProt P00533, C797S/DEL746-750); assay: Biochemical EGFR kinase assay (Lance Ultra TR-FRET), double mutant del19/C797S
How it was run: as §1

[5] = target: EGFR del19/T790M/C797S (Homo sapiens, UniProt P00533, C797S/DEL746-750/T790M); assay: Biochemical EGFR kinase assay (Lance Ultra TR-FRET), triple mutant del19/T790M/C797S
How it was run: as §1

[6] = ATP at Km, read-out: IC50 L858R/C797S, Km ATP
[7] = ATP at Km, read-out: IC50 L858R/T790M/C797S, Km ATP
[8] = IC50 L858R/T790M/C797S, 100 μM ATP
[9] = ATP at Km, read-out: IC50 WT, Km ATP
[10] = ATP at Km, read-out: IC50 del19/C797S, Km ATP
[11] = ATP at Km, read-out: IC50 del19/T790M/C797S, Km ATP
[12] = IC50 del19/T790M/C797S, 100 μM ATP

Chain of EGFR L858R/C797S (P00533 25-1210 C797S/L858R): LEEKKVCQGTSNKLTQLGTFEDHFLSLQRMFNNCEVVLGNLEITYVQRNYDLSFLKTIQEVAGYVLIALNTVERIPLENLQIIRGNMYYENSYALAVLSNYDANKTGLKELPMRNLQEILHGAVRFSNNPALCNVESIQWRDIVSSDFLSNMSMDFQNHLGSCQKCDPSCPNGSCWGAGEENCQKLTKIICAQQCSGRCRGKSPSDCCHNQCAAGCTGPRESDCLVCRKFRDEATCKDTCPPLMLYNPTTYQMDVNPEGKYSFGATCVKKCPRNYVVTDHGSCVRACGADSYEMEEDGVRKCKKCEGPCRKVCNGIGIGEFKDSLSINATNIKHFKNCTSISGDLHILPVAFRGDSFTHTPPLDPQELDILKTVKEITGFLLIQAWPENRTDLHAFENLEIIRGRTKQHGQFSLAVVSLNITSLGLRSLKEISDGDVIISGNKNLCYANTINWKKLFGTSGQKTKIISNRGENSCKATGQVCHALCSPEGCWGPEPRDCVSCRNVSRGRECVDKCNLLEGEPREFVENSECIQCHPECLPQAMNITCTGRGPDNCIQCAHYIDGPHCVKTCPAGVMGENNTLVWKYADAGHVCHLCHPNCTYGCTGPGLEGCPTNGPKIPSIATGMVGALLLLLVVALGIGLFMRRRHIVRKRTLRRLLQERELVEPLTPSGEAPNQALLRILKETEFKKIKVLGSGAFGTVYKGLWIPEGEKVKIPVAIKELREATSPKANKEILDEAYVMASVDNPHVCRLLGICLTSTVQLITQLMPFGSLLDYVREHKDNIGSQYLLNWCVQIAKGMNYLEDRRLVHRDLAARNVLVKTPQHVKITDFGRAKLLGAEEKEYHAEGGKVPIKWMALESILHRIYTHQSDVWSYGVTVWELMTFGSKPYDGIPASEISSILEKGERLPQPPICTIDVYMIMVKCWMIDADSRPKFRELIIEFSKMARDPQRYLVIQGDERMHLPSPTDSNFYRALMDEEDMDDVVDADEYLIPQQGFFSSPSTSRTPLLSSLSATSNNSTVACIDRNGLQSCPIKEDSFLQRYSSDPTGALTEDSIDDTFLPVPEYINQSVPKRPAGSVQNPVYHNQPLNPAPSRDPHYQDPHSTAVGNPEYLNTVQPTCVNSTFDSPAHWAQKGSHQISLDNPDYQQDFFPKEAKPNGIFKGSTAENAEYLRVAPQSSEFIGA
Chain of EGFR del19/T790M/C797S (P00533 with tags, fused parts or gaps DEL746-750/T790M/C797S): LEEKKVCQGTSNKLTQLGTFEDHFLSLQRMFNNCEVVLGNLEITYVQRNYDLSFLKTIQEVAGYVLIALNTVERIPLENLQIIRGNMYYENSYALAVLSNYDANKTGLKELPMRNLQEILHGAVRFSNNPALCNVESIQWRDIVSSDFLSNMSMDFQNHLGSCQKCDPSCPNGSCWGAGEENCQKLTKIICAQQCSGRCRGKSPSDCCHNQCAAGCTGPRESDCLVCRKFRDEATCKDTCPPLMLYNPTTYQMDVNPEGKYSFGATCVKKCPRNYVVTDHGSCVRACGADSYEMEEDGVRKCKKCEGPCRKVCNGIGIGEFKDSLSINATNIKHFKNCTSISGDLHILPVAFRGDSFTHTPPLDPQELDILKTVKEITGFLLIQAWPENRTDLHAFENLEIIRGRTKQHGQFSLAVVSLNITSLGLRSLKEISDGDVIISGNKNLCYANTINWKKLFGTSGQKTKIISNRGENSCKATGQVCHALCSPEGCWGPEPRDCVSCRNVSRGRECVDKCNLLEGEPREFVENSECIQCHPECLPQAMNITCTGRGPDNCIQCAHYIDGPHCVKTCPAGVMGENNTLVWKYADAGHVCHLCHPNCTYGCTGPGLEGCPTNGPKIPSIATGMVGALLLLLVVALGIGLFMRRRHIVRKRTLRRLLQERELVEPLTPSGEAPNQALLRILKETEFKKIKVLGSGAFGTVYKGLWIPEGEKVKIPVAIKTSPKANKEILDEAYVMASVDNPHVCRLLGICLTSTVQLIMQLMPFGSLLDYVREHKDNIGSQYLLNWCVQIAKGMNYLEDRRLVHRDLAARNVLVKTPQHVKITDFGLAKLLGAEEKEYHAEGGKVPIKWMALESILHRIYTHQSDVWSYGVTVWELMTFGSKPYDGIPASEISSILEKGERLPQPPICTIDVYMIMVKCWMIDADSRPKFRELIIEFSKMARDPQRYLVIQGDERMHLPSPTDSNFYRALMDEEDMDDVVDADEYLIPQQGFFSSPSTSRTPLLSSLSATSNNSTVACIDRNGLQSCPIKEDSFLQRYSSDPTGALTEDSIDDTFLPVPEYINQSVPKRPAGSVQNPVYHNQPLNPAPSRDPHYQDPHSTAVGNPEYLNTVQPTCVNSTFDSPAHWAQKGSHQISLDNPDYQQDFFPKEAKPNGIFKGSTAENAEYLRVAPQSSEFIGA
Chain of EGFR del19/C797S (P00533 with tags, fused parts or gaps DEL746-750/C797S): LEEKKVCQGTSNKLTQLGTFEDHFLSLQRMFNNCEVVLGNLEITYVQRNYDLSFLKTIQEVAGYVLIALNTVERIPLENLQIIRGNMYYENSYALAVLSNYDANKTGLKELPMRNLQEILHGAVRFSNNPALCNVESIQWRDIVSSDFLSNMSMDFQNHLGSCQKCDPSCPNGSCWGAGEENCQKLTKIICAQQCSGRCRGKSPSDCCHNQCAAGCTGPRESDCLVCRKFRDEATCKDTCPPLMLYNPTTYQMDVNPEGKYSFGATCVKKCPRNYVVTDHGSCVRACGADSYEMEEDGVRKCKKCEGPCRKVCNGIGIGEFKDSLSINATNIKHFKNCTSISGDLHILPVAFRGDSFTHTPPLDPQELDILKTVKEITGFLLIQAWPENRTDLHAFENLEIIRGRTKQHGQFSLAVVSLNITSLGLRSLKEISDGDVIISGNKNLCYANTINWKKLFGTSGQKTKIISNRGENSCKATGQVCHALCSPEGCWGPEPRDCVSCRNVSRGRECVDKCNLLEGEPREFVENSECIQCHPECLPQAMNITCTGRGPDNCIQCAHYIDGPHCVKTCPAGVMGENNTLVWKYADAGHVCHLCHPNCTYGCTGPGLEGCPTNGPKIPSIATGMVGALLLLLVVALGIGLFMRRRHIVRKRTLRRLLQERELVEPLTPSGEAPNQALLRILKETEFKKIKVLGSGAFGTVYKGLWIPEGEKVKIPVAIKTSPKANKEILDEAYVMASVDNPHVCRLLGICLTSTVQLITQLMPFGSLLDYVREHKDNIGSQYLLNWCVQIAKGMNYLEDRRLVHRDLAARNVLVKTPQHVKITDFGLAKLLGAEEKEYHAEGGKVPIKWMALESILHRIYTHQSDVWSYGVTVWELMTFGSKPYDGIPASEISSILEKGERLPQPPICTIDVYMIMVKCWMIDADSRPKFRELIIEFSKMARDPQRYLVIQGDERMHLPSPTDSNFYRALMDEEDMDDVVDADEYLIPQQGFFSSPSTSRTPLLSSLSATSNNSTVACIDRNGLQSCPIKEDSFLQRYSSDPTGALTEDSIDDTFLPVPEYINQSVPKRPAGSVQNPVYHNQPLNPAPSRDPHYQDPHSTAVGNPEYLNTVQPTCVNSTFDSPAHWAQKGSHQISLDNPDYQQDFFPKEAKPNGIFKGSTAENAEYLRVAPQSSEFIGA
Chain of EGFR L858R/T790M/C797S (P00533 25-1210 T790M/C797S/L858R): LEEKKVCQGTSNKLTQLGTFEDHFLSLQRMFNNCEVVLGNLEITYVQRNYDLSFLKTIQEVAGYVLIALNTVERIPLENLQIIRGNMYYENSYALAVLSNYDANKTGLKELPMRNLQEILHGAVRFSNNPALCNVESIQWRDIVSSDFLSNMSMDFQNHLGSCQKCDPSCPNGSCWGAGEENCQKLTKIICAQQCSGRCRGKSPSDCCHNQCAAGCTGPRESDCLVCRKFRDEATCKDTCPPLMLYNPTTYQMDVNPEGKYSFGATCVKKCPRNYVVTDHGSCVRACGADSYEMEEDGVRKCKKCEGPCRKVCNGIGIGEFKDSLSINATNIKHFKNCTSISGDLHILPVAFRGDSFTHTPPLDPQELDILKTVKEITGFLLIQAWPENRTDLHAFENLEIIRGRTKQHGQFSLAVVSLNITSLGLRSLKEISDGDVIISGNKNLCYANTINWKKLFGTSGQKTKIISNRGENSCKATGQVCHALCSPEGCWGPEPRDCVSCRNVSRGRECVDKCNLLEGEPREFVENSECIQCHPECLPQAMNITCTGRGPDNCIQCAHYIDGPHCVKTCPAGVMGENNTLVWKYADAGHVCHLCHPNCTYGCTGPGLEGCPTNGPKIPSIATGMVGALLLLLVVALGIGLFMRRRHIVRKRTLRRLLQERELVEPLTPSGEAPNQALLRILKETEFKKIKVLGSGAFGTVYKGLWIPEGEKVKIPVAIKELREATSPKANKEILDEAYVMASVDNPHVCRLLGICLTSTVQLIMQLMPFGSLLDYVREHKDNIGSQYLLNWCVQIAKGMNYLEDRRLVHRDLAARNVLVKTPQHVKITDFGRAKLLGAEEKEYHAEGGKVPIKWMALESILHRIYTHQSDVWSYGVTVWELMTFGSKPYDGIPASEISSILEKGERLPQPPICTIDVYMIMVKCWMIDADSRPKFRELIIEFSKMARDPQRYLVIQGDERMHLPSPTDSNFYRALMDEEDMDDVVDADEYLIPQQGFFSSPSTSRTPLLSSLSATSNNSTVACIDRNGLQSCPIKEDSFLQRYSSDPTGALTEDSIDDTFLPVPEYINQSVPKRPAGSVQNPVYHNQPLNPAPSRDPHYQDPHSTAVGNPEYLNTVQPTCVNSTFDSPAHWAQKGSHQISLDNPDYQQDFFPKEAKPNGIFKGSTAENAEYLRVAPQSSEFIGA

SMILES | pIC50 [1, 6] | pIC50 ([1]; IC50 L858R/C797S, 100 μM ATP) | pIC50 [2, 7] | pIC50 [2, 8] | pIC50 [3, 9] | pIC50 ([3]; IC50 WT, 100 μM ATP) | pIC50 [4, 10] | pIC50 ([4]; IC50 del19/C797S, 100 μM ATP) | pIC50 [5, 11] | pIC50 [5, 12]
O=S(=O)(C1CC1)n1cc(-c2nccc(Nc3cc(NCC4(CO)COC4)c(-c4cccc(F)n4)cn3)n2)cn1 [Example 161, (3-(((6′-((2-(1-(Cyclopropylsulfonyl)-1H-pyrazol-4-yl)pyrimidin-4-yl)amino)-6-fluoro-[2,3′-bipyridin]-4′-yl)amino)methyl)oxetan-3-yl)methanol] | 8.72 | 7.91 | 10.00 | 9.30 | 7.94 | < 5.00 | 9.05 | 8.92 | 10.00 | 10.00
O=S(=O)(C1CC1)n1cc(-c2nccc(Nc3cc(NC4CCC(F)(CO)CC4)c(-c4cccc(F)n4)cn3)n2)cn1 (centres unmarked) [Example 162, (4-((6′-((2-(1-(Cyclopropylsulfonyl)-1H-pyrazol-4-yl)pyrimidin-4-yl)amino)-6-fluoro-[2,3′-bipyridin]-4′-yl)amino)-1-fluorocyclohexyl)methanol] | 7.70 | 5.81 | 9.40 | 8.52 | 5.53 | < 5.00 | 7.88 | 7.68 | 9.30 | 8.89
CC(C)(O)[C@H]1CC[C@@H](Nc2cc(Nc3ccnc(-c4cnn(S(=O)(=O)C5CC5)c4)n3)ncc2-c2cccc(F)n2)CC1 [Example 163, 2-((1s,4s)-4-((6′-((2-(1-(Cyclopropylsulfonyl)-1H-pyrazol-4-yl)pyrimidin-4-yl)amino)-6-fluoro-[2,3′-bipyridin]-4′-yl)amino)cyclohexyl)propan-2-ol] | 7.89 | 7.31 | 9.15 | 8.64 | 7.73 | < 5.00 | 8.59 | 8.51 | – | 8.59
CN(C)S(=O)(=O)c1ccc(-c2cnc(Nc3ccnc(-c4cnn(S(=O)(=O)C5CC5)c4)n3)cc2N[C@H]2CC[C@@H](C(C)(C)O)CC2)nc1 [Example 165, 6′-((2-(1-(Cyclopropylsulfonyl)-1H-pyrazol-4-yl)pyrimidin-4-yl)amino)-4′-(((1s,4s)-4-(2-hydroxypropan-2-yl)cyclohexyl)amino)-N,N-dimethyl-[2,3′-bipyridine]-5-sulfonamide] | 8.80 | 7.73 | 9.00 | 8.77 | – | < 5.00 | 8.74 | 8.12 | 8.46 | 8.92
CN(C)S(=O)(=O)c1ccc(-c2cnc(Nc3ccnc(-c4cnn(S(=O)(=O)C5CC5)c4)n3)cc2N[C@H]2CC[C@@H](CO)CC2)nc1 [Example 166, 6′-((2-(1-(Cyclopropylsulfonyl)-1H-pyrazol-4-yl)pyrimidin-4-yl)amino)-4′-(((1s,4s)-4-(hydroxymethyl)cyclohexyl)amino)-N,N-dimethyl-[2,3′-bipyridine]-5-sulfonamide] | 8.96 | 8.62 | – | 9.22 | 8.70 | < 5.00 | 8.92 | 8.62 | 8.72 | 8.29
CN(C)c1ccnc(-c2cnc(Nc3ccnc(-c4cnn(S(=O)(=O)C5CC5)c4)n3)cc2N[C@H]2CC[C@@](C)(O)CC2)c1 [Example 167, (1s,4s)-4-((6′-((2-(1-(Cyclopropylsulfonyl)-1H-pyrazol-4-yl)pyrimidin-4-yl)amino)-4-(dimethylamino)-[2,3′-bipyridin]-4′-yl)amino)-1-methylcyclohexan-1-ol] | – | 7.28 | – | 8.46 | – | < 5.00 | – | 7.34 | – | 8.57
CC(C)(O)c1ccc(-c2cnc(Nc3ccnc(-c4cnn(S(=O)(=O)C5CC5)c4)n3)cc2N[C@H]2CC[C@@](C)(O)CC2)nc1 [Example 168, (1s,4s)-4-((6′-((2-(1-(Cyclopropylsulfonyl)-1H-pyrazol-4-yl)pyrimidin-4-yl)amino)-5-(2-hydroxypropan-2-yl)-[2,3′-bipyridin]-4′-yl)amino)-1-methylcyclohexan-1-ol] | 9.70 | 9.30 | 9.70 | 9.70 | – | 7.04 | 9.70 | 9.40 | 9.40 | 9.52
CC(C)(O)c1ccc(-c2cnc(Nc3ccnc(-c4cnn(S(=O)(=O)C5CC5)c4)n3)cc2N[C@H]2CC[C@@H](C(C)(C)O)CC2)nc1 [Example 169, 2-(6′-((2-(1-(Cyclopropylsulfonyl)-1H-pyrazol-4-yl)pyrimidin-4-yl)amino)-4′-(((1s,4s)-4-(2-hydroxypropan-2-yl)cyclohexyl)amino)-[2,3′-bipyridin]-5-yl)propan-2-ol] | 9.40 | – | – | 9.15 | – | 6.38 | 9.30 | 8.89 | 8.89 | 9.05
CC(C)(O)c1ccc(-c2cnc(Nc3ccnc(-c4cnn(S(=O)(=O)C5CC5)c4)n3)cc2N[C@H]2CC[C@@H](CO)CC2)nc1 [Example 170, 2-(6′-((2-(1-(Cyclopropylsulfonyl)-1H-pyrazol-4-yl)pyrimidin-4-yl)amino)-4′-(((1s,4s)-4-(hydroxymethyl)cyclohexyl)amino)-[2,3′-bipyridin]-5-yl)propan-2-ol] | 9.22 | 8.68 | 9.70 | 9.05 | – | 6.85 | 9.15 | 8.70 | 9.10 | 8.89
CN(C)C[C@H]1CC[C@@H](Nc2cc(Nc3ccnc(-c4cnn(S(=O)(=O)C5CC5)c4)n3)ncc2-c2ccc(C(C)(C)O)cn2)CC1 [Example 171, 2-(6′-((2-(1-(Cyclopropylsulfonyl)-1H-pyrazol-4-yl)pyrimidin-4-yl)amino)-4′-(((1s,4s)-4-((dimethylamino)methyl)cyclohexyl)amino)-[2,3′-bipyridin]-5-yl)propan-2-ol] | 9.70 | 9.52 | 10.00 | 9.70 | 9.70 | 7.17 | 10.00 | 9.52 | 9.52 | 9.30
CN(C)C(=O)[C@H]1CC[C@@H](Nc2cc(Nc3ccnc(-c4cnn(S(=O)(=O)C5CC5)c4)n3)ncc2-c2ccc(C(C)(C)O)cn2)CC1 [Example 172, (1s,4s)-4-((6′-((2-(1-(Cyclopropylsulfonyl)-1H-pyrazol-4-yl)pyrimidin-4-yl)amino)-5-(2-hydroxypropan-2-yl)-[2,3′-bipyridin]-4′-yl)amino)-N,N-dimethylcyclohexane-1-carboxamide] | 8.89 | 8.32 | 9.70 | 9.70 | 9.40 | 7.03 | 9.52 | 9.10 | 9.15 | 9.22
CC(C)(O)c1ccc(-c2cnc(Nc3ccnc(-c4cnn(S(=O)(=O)C5CC5)c4)n3)cc2N[C@H]2CC[C@@H](F)CC2)nc1 [Example 173, 2-(6′-((2-(1-(Cyclopropylsulfonyl)-1H-pyrazol-4-yl)pyrimidin-4-yl)amino)-4′-(((1s,4s)-4-fluorocyclohexyl)amino)-[2,3′-bipyridin]-5-yl)propan-2-ol] | 8.80 | – | 9.05 | – | 7.63 | – | 8.10 | – | 8.74 | –
CC(C)(O)c1ccc(-c2cnc(Nc3ccnc(-c4cnn(S(=O)(=O)C5CC5)c4)n3)cc2NC2CCC(F)CC2)nc1 (centres unmarked) [Example 174, 2-(6′-((2-(1-(Cyclopropylsulfonyl)-1H-pyrazol-4-yl)pyrimidin-4-yl)amino)-4′-((4-fluorocyclohexyl)amino)-[2,3′-bipyridin]-5-yl)propan-2-ol] | 8.74 | – | 8.96 | – | 7.63 | – | 8.11 | – | 8.60 | –
CC(C)(O)c1ccc(-c2cnc(Nc3ccnc(-c4cnn(S(=O)(=O)C5CC5)c4)n3)cc2NC2CCC(F)(F)CC2)nc1 [Example 175, 2-(6′-((2-(1-(Cyclopropylsulfonyl)-1H-pyrazol-4-yl)pyrimidin-4-yl)amino)-4′-((4,4-difluorocyclohexyl)amino)-[2,3′-bipyridin]-5-yl)propan-2-ol] | 8.41 | – | 8.96 | – | 7.04 | – | 7.69 | – | 8.62 | –
CC(C)(O)c1ccc(-c2cnc(Nc3ccnc(-c4cnn(S(=O)(=O)C5CC5)c4)n3)cc2NC2CCCN(CCF)C2)nc1 (centres unmarked) [Example 177, 2-(6′-((2-(1-(Cyclopropylsulfonyl)-1H-pyrazol-4-yl)pyrimidin-4-yl)amino)-4′-((1-(2-fluoroethyl)piperidin-3-yl)amino)-[2,3′-bipyridin]-5-yl)propan-2-ol] | 8.05 | – | 8.72 | – | 7.39 | – | 8.43 | – | 9.05 | –
CC(C)(O)c1ccc(-c2cnc(Nc3ccnc(-c4cnn(S(=O)(=O)C5CC5)c4)n3)cc2NC2CCN(CC(F)F)CC2)nc1 [Example 178, 2-(6′-((2-(1-(Cyclopropylsulfonyl)-1H-pyrazol-4-yl)pyrimidin-4-yl)amino)-4′-((1-(2,2-difluoroethyl)piperidin-4-yl)amino)-[2,3′-bipyridin]-5-yl)propan-2-ol] | 8.33 | – | 9.00 | – | 7.02 | – | 8.59 | – | 9.15 | –
